In brackets after ≈: the same amount, converted by molar mass. Several values for one entry are separate records, joined by “and”; a condition that tells them apart may be missing. Equal values may be shown once. Read-outs that look alike come from different tables or passages of the source.
Experiments:
[1] = test system: Gram-negative (GN) species; assay: CLSI broth microdilution / agar dilution MIC, spectrum study; assay type: cell-based; details: all except E. brevis, M. catarrhalis, N. meningitidis
Method: (§1) CLSI broth microdilution (BMD) and anaerobic agar dilution (AD) methods were performed. Modifications of standard test methods included adding 10% human serum, adjusting the medium pH to 5, 6, and 8, and synergy was assessed by the checkerboard method. Mutational rates to R were determined at 4×.

[2] = test system: Gram-positive (GP) species; assay: as above; assay type: cell-based
Method: as §1

Corynebacterium spp. = assay: CLSI broth microdilution MIC, spectrum study; assay type: cell-based
Method: as §1

[3] = test system: E. brevis, M. catarrhalis and N. meningitidis; assay: CLSI broth microdilution MIC, spectrum study; assay type: cell-based
Method: as §1

Enterococci = assay: CLSI broth microdilution MIC, spectrum study; assay type: cell-based
Method: as §1

M. luteus = assay: CLSI broth microdilution MIC, spectrum study; assay type: cell-based; details: Micrococcus luteus
Method: as §1

S. aureus [4] = assay: CLSI broth microdilution MIC, spectrum study; assay type: cell-based; details: Staphylococcus aureus
Method: as §1

streptococci = assay: CLSI broth microdilution MIC, spectrum study; assay type: cell-based
Method: as §1

WT isolates = assay: MIC with 10% human serum added; assay type: cell-based
Method: as §1

S. aureus [5] = assay: Reference broth microdilution susceptibility testing, Canadian isolates; assay type: cell-based
Description: (§2) To determine a contemporary susceptibility (S) spectrum pattern. 153 GP isolates (123 S. aureus, 15 coagulase-negative staphylococci [CoNS] and 15 S. pyogenes [SPYO]) were collected from 5 Canadian medical centers between 2001 and 2006.

S. pyogenes [SPYO] = assay: as above; assay type: cell-based; details: Streptococcus pyogenes; all 15 isolates
Description: as §2

[6] = test system: coagulase-negative staphylococci [CoNS]; assay: as above; assay type: cell-based; details: 15 isolates
Description: as §2

[7] = Single oral dose bioavailability study, fed/fasted crossover; assay type: in vivo, healthy subjects (human)
Method: Single oral dose bioavailability study of CEM-102 (sodium fusidate). […] This was a single-center, Phase 1, double-blind, randomized, 3 period, fed/fasted crossover bioequivalence study designed to evaluate the relative bioavailability and safety and tolerability of a single oral dose of CEM-102 500 mg compared to Fucidin® 500 mg in healthy subjects. Subjects were randomized in equal numbers to the 4 treatment sequences (Table 3).
Study Period 1, 2, and 3 (Days 1, 15, and 29): One dose of study drug 500 mg (2×250 mg) of CEM-102 or Fucidin® was given at 8:00 AM (˜30 minutes). On Day 1 of Study Periods 1 and 2 (Days 1 and 15), subjects fasted overnight for at least 10 hours prior to dosing. On Day 1 of Study Period 3 (Day 29), subjects were given a high fat caloric meal which was to be entirely consumed within 30 minutes prior to study drug administration.
Blood samples for assay of plasma concentrations were collected on Days 1, 15 and 29 at pre-dose and 0.5, 1, 1.5, 2, 2.5, 3, 3.5, 4, 6, 8, 12, 16, 24, 36, and 48 hours after the dose. Plasma concentrations were assayed at MicroConstants, Inc. in San Diego, Calif. using a validated liquid chromatography with dual tandem mass spectrometry (LC/MS/MS) method with a lower limit of quantitation (LLOQ) of 20.0 ng/mL

[8] = test system: methicillin-resistant S. aureus (MRSA) strain USA 300; assay: CLSI MIC against MRSA strain USA 300; assay type: cell-based; details: Staphylococcus aureus
Method: (§3) Pharmacodynamics of CEM-102 against Methicillin-Resistant Staphylococcus aureus Using In vitro Models. A hollow fiber model was used to evaluate CEM-102 resistance potential in methicillin-resistant S. aureus (MRSA) strain USA 300 (Network of Antimicrobial Resistance in Staphylococcus aureus (MRSA), Chantilly, Va.). USA 300 is a highly virulent strain of MRSA and is the most common community-associated MRSA isolate in the USA. MIC values were determined in accordance with Clinical and Laboratory Standards Institute (CLSI).

[9] = test system: methicillin-resistant S. aureus (MRSA) strain USA 300; assay type: cell-based, Staphylococcus aureus
Method: as §3
The hollow fiber model comprised a two-compartment hollow fiber model (Louie et al. Antimicrob Agents Chemother 52:2486-2496(2008)) consisting of a volume of 15 mL in the central compartment, with multiple ports for the removal of broth, delivery of antibiotics, and collection of bacterial and antimicrobial samples. […] All experiments were performed in duplicate.
Hollow fibers contain 15 ml of media was prepared and inoculated with 10^6 colony forming units (CFU)/mL USA 300 bacteria. One of three different dosing regimens of […] was then applied to the fibers: (1) […] q12h; (2) 1200 mg/ml×2, followed by […], q12h; (3) 1500 mg/ml×2, followed by […], q12h.

[10] = cited from earlier work
S. aureus [11] = details: cited from earlier work
[12] = in the blood; cited from earlier work

Work on `CC(=O)O[C@H]1C[C@@]2(C)[C@@H](C[C@@H](O)[C@H]3[C@@]4(C)CC[C@@H](O)[C@@H](C)[C@@H]4CC[C@@]32C)/C1=C(\CCC=C(C)C)C(=O)O` [FA, fusidic acid] yielded an MIC [1] of at least 2 µg/mL, an MIC values range [2] of 0.06 to 32 µg/mL and an MIC (Corynebacterium spp.) of at most 0.12 µg/mL. For the same compound, the MIC [3] was 0.12 to 0.5 µg/mL, the MIC range (Enterococci) was 2 to 8 µg/mL and the MIC (M. luteus) was at most 0.5 µg/mL. The MIC (S. aureus [4]) was 0.25 µg/mL, the MIC range (streptococci) was 16 to 32 µg/mL and the “increase in MIC when 10% serum was added” value (WT isolates) was 4 fold. For the same compound, the “% at ≤0.5” value (S. aureus [5]; 2001-2002) was 95.0%, the “No. inhibited at MIC 0.06 μg/mL” value (S. aureus [5]; 2001-2002) was 8 and the “No. inhibited at MIC […]” value (S. aureus [5]; 2001-2002) was 29 and 1. For the same compound, the “No. inhibited at MIC ≥2 μg/mL” value (S. aureus [5]; 2001-2002) was 2, the “R rate over time” value (S. aureus [5]; 2001-2006, breakpoint ≤0.5 μg/ml (S) and ≤2 μg/ml (R)) was 5.0-12.2% and the “% at ≤0.5” value (S. aureus [5]; 2003-2004) was 92.9%. For the same compound, the MIC50 (S. aureus [5]; 2003-2004) was 0.12 µg/mL (≈ 0.232 µM), the “No. inhibited at MIC 0.06 μg/mL” value (S. aureus [5]; 2003-2004) was 6 and the “No. inhibited at MIC […]” value (S. aureus [5]; 2003-2004) was 33. The “No. inhibited at MIC ≥2 μg/mL” value (S. aureus [5]; 2003-2004) was 3, the “% at ≤0.5” value (S. aureus [5]; 2005-2006) was 87.8% and the “No. inhibited at MIC 0.06 μg/mL” value (S. aureus [5]; 2005-2006) was 2. The “No. inhibited at MIC […]” value (S. aureus [5]; 2005-2006) was 32 and 2, the “No. inhibited at MIC ≥2 μg/mL” value (S. aureus [5]; 2005-2006) was 5 and the MIC90 (S. aureus [5]; Staphylococcus aureus, 2003-2004) was 0.12 µg/mL (≈ 0.232 µM). It also gave an MIC90 (S. aureus [5]; Staphylococcus aureus, 2005-2006) of at least 2 µg/mL, an MIC90 (S. aureus [5]; Staphylococcus aureus, overall S. aureus population) of 0.25 µg/mL (≈ 0.484 µM) and an MIC90 (S. aureus [5]; Staphylococcus aureus, 2001-2002) of 0.12 µg/mL (≈ 0.232 µM). It also gave an MIC50 (S. aureus [5]; Staphylococcus aureus, 2001-2002, read-out: MIC50) of 0.12 µg/mL (≈ 0.232 µM), a R rate (S. aureus [5]; overall S. aureus population) of 8.1% and an MIC (S. pyogenes [SPYO]) of 4 to 8 µg/mL (≈ 7.74 to 15.5 µM). The MIC50 [6] was 0.12 µg/mL (≈ 0.232 µM), the MIC90 [6] was 16 µg/mL (≈ 31 µM) and the “total exposure (AUC)” value ([7]; 500 mg, fasting) was about 318 µg·h/mL. For the same compound, the “total exposure (AUC)” value ([7]; 500 mg, fed) was “approximately 285 μg·h/mL”, the “tmax, median” value ([7]; human, in vivo, po) was about 3.00 h and the “t1/2, arithmetic mean ± SD” value ([7]; human, in vivo, po, 500 mg) was about 11.8 h. The “tmax, median” value ([7]; single oral 500 mg (2×250 mg), fasting) was 3.00 h, the “tmax, median” value ([7]; single oral 500 mg (2×250 mg), fed) was 3.50 h and the MIC [8] was 0.25 µg/mL (≈ 0.484 µM). For the same compound, the outcome of treatment ([9]; 600 mg q12h) was “regrowth and development of resistance by 24 h and 48 h”, the “reduction of bacterial counts” value ([9]; 1200 mg×2 then 600 mg q12h) was about 2 logs and the time of rebound ([9]; 1200 mg×2 then 600 mg q12h) was 72 h. The killing ([9]; 1500 mg×2 then 600 mg q12h) was “over 2.5 log”, the resistance suppressed until ([9]; 1500 mg×2 then 600 mg q12h) was over 72 h and the time of rebound ([9]; 1500 mg×2 then 600 mg q12h) was 144 h. The “Cmax in plasma at steady state” value ([10]; 500 mg TID, steady state after the 4th day) was 140 µg/mL, the Cmax in plasma ([10]; after the first day of treatment, 500 mg TID) was “around 30 ug/ml” and the oral bioavailability ([10]; oral) was “around 98%”. For the same compound, the “MICs of resistant S. aureus strains” value (S. aureus [11]; FA-resistant strains) was over 256 µg/mL, the “actual MIC” value (S. aureus [11]; S. aureus, without protein) was under 0.25 µg/mL and the MIC90 (S. aureus [11]; S. aureus) was 0.12 µg/mL (≈ 0.232 µM). For the same compound, the Protein binding [12] was 95-97% and 96-98%.
